# Patent publication US20160101076A1, “Use of Sumoylation Inhibitors for Treating Cancer” (priority 2013, published 2016)
# Columns and labels:
# IOWA-1T xenografts = IOWA-1T xenografts from pre-treated cells; assay type: in vivo; conditions: IOWA-1T cells pre-treated vs vehicle, nude mice; p=0.002; FIG. 8C
# Source text: FIGS. 8A-8D. SUMO Inhibitors Repressed Outgrowth of Xenografts. FIG. 8A. […] FIG. 8B. Tumor-free survival of nude mice (n=5 per group) inoculated with BT20 cells with animals gavaged with AA vs. vehicle. FIG. 8C. IOWA-1T cells were pre-treated with anacardic acid (AA) or vehicle and mice were followed until requiring euthanasia due to tumor size (Overall Survival). […] FIG. 8D. Nude mice were inoculated with 1×10^6, 5×10^5, or 2.5×10^5 IOWA-1T cells and animals were gavaged with either vehicle or AA; vehicle-gavaged mice developed tumors in 5, 10 and 12 days, respectively.
# To address the effects of GA and AA on tumor initiation, BT20 cells were pretreated with GA or AA compared to vehicle prior to inoculation of xenografts in nude mice. As noted in FIG. 8A, pretreatment of the cells repressed the formation of tumor xenografts, whereas, vehicle treated cells formed xenografts with a median time of 8 weeks. […] We created a breast carcinoma cell line (IOWA-1T) from the basal tumor-derived cells used in FIG. 6A. The IOWA-1T cell line rapidly forms locally advanced tumors in nude mice. Identical experiments using the IOWA-1T basal cell line confirmed that either pre-treating the cancer cells or gavaging animals with AA repressed tumor initiation of xenografts (FIGS. 8C and 8D).
# Statistical analysis was performed using the two-sided Student's T-test for continuous variables. […]
# [1] = test system: undifferentiated thyroid cell line 8505c; test: CD44 Western blot in 8505c thyroid carcinoma; assay type: cell-based; conditions: 96 h treatment, FIG. 19
# Procedure: FIG. 19: Western blot, CD44 downregulation, 8505c thyroid carcinoma was treated with ginkgolic and anacardic acids, 96 h.
# Similar downregulation of stem cell marker CD44 was determined in pancreatic carcinoma Panc-1 cell line (FIG. 18) and undifferentiated thyroid cell line 8505c (FIG. 19) after 96 h treatment with SUMO inhibitors anacardic and ginkgolic acids. • Woodfield, G. W., Horan, A. D., Chen, Y. & Weigel, R. J. TFAP2C controls hormone response in breast cancer cells through multiple pathways of estrogen signaling. Cancer Res 67, 8439-8443 (2007). • Woodfield, G. W., Chen, Y., Bair, T. B., Domann, F. E. & Weigel, R. J. Identification of primary gene targets of TFAP2C in hormone responsive breast carcinoma cells. Genes Chromosomes Cancer 49, 948-962, doi:10.1002/gcc.20807 (2010). • Tan, S. K. et al. AP-2gamma regulates oestrogen receptor-mediated longrange chromatin interaction and gene transcription. Embo J 30, 2569-2581, doi:10.1038/emboj.2011.151 (2011). • Sorlie, T. et al. Gene expression patterns of breast carcinomas distinguish tumor subclasses with clinical implications. Proc Natl Acad Sci USA 98, 10869-10874. (2001). • Kao, J. et al. Molecular profiling of breast cancer cell lines defines relevant tumor models and provides a resource for cancer gene discovery. […]
SMILES,tumor formation (overall survival) (IOWA-1T xenografts),stem cell marker CD44 (Western blot) [1]
"CCCCCCCCCCCCCCCc1cccc(O)c1C(=O)O [AA, Anacardic acid (C15:0)]",inhibited tumor formation,downregulation
"CCCCCC/C=C\CCCCCCCc1cccc(O)c1C(=O)O [GA, (Z)-6-(Pentadec-8-enyl)-2-hydroxybenzoic acid]",–,downregulation
